Measurements reported in patent US8088570B2, “Method for screening an agent for preventing or ameliorating wrinkles” (Kao Corporation, priority 2006, dated 2012).

Legend:
[1] = tested on: chronically ultraviolet-irradiated mice (wrinkle formation model); assay: Wrinkle-improving effect of CLP, visual observation score in chronically ultraviolet-irradiated hairless mice (Reference Example 1); format: in vivo, hairless mice (Hr-1-ICR); conditions: 5 w/v % CLP, 100 μL on dorsal skin for 6 weeks after 12 weeks of UV irradiation
From the text: An experimental system of the chronic and continuous exposure of hairless mice to ultraviolet rays of minimum erythema dose (hereinafter, referred to as 1 MED) or lower (J. Pharm. Pharmacol. 1992; 44: 379-386; and Photochem. Photobiol., 1991; 53: 109-112) was used as a wrinkle formation model to perform a test of wrinkle improvement of 1-carbamimidoyl-L-proline (CLP) in vivo.
The mice used were hairless mice (Hr-1-ICR) produced from crossing between Hr-1 (Skh-1) hairless mice and ICR mice. Toshiba SE20 lamps were used as an ultraviolet source, and ultraviolet doses used were measured with UV-RADIOMETER (UVR-305/365D, Eisai). The 6- to 10-week-old hairless mice were exposed once a day and five times a week for 12 consecutive weeks to ultraviolet rays of 1 MED or lower, that is, at a dose of 470 J/m^2 during the 0th (at the start of irradiation) to first week, at a dose of 530 J/m^2 during the first to second week, at a dose of 600 J/m^2 during the second to third week, and at a dose of 670 J/m^2 during the fourth and subsequent weeks, to prepare chronically ultraviolet-irradiated mice. […]
The degree of wrinkles formed on the dorsal skins of the mice was determined at the start of CLP application and on the 6th week according to a visual observation score with reference to the documents described above. The score was evaluated on a scale of 7 using the scores below and mean values. […]

K6 protein [2] = assay: Epidermal K6 protein level by western blotting in wrinkle model mice (Example 1); format: in vivo, hairless mice; conditions: 5 w/v % CLP applied 6 weeks after 9 weeks of UV irradiation; compared with solvent control and unirradiated mice
Experimental: (§1) Six-week-old hairless mice of the same species as in Reference Example 1 were exposed for 9 consecutive weeks to ultraviolet rays at a dose of 470 J/m^2 during the 0th (at the start of irradiation) to first week, at a dose of 530 J/m^2 during the first to second week, at a dose of 600 J/m^2 during the second to third week, and at a dose of 670 J/m^2 during the fourth and subsequent weeks, to prepare chronically ultraviolet-irradiated mice (wrinkle model mice). Then, 100 μL of 5 w/v % CLP solution (50 vol % ethanol solution) was applied once […] and five times a week for 6 consecutive weeks to the whole dorsal skin of each of the mice to examine changes in epidermal keratin protein levels. For controls, 50 vol % ethanol solution (solvent control) and unirradiated age-matched mice (unirradiated mice) were used. Each of the groups comprised 3 mice.
(§2) After the dorsal skins collected from the mice were cooled on ice immediately after treatment in distilled water at 60° C. for 1 minute, epidermal portions were separated from the dermis with a spatula. […] Labeling was performed by using peroxidase-labeled secondary antibodies, and color was developed by chemiluminescence method (ECL-Plus, Amersham Pharmacia Biotech) and detected with X-ray films. Quantification was performed with Adobe Photoshop (Adobe Systems Incorporated).

K16 protein [3] = assay: Epidermal K16 protein level by western blotting in wrinkle model mice (Example 1); format: in vivo, hairless mice; conditions: 5 w/v % CLP applied 6 weeks after 9 weeks of UV irradiation; compared with solvent control and unirradiated mice
Experimental: as §1, §2

K1 protein [4] = assay: Epidermal K1 protein level by western blotting in wrinkle model mice (Example 1); format: in vivo, hairless mice; conditions: 5 w/v % CLP applied 6 weeks after 9 weeks of UV irradiation
Experimental: as §1, §2

K10 protein [5] = assay: Epidermal K10 protein level by western blotting in wrinkle model mice (Example 1); format: in vivo, hairless mice; conditions: 5 w/v % CLP applied 6 weeks after 9 weeks of UV irradiation
Experimental: as §1, §2

K14 protein [6] = assay: Epidermal K14 protein level by western blotting in wrinkle model mice (Example 1); format: in vivo, hairless mice; conditions: 5 w/v % CLP applied 6 weeks after 9 weeks of UV irradiation
Experimental: as §1, §2

K5 protein [7] = assay: Epidermal K5 protein level by western blotting in wrinkle model mice (Example 1); format: in vivo, hairless mice; conditions: 5 w/v % CLP applied 6 weeks after 9 weeks of UV irradiation
Experimental: as §1, §2

[8] = tested on: hairless mice exposed to ultraviolet rays (wrinkle formation); assay: Inhibitory effect of CLP on wrinkle formation, visual observation score (Example 2); format: in vivo; conditions: 4% (Wt/Vol %) CLP, 100 μL applied immediately after each UV irradiation, 12 weeks
Experimental: The degree of wrinkles formed on the dorsal skins of the mice was determined at the start of CLP application and on the 6th week according to a visual observation score with reference to the documents described above. The score was evaluated on a scale of 7 using the scores below and mean values.
Score 0: no wrinkle observed
Score 1: wrinkles slightly observed
Score 2: wrinkles observed
Score 3: wrinkles remarkably observed
The same 6- to 8-week-old hairless mice as in Reference Example 1 were used and exposed to ultraviolet rays of 1 MED (minimum erythema dose) or lower. Immediately after the ultraviolet irradiation, procedures for applying 100 μL of 4% (Wt/Vol %) CLP solution (solvent: 30 Vol/Vol % ethanol/water solution) or vehicle control to the whole dorsal skin of each of the mice were performed once a day and five times a week for 12 consecutive weeks. The irradiation dose was 470 J/m^2 during the 0th (at the start of irradiation) to first week, 530 J/m^2 during the first to second week, 600 J/m^2 during the second to third week, and 670 J/m^2 during the fourth and subsequent weeks. Each of the groups comprised 10 to 12 mice.
The degree of wrinkles formed on the dorsal skins of the mice was determined after 12 weeks from the start of ultraviolet irradiation according to the visual observation score in the same way as in Reference Example 1.

K6 protein [9] = assay: Epidermal K6 protein level by western blotting, wrinkle formation test (Example 2); format: in vivo, hairless mice; conditions: 4% CLP applied with UV irradiation, 12 weeks
Experimental: (§3) After the dorsal skins collected from the mice were cooled on ice immediately after treatment in distilled water at 60° C. for 1 minute, epidermal portions were separated from the dermis with a spatula. The obtained epidermal portions (containing the stratum corneum) were homogenized in a urea buffer (8 M urea, 50 mM tris-HCl (pH 7.6), 100 mM mercaptoethanol, 1 mM dithiothreitol, and protease inhibitors) to extract proteins. Insoluble matter was removed by centrifugation and supernatant collection. Following the measurement of the total protein concentration (RD DC Protein Assay Kit, Bio-Rad Laboratories Inc.), samples were prepared at the same concentrations. The samples were supplemented with laemmli buffer and treated at 90 to 100° C. for 3 to 5 minutes to give samples for electrophoresis. The samples were electrophoresed on 5 to 15% gradient acrylamide gel or 12.5% acrylamide gel (Bio Rad) at 60 V for 3 hours and blotted onto a nitrocellulose membrane at 250 mA for 1 hour under ice cooling. […] Labeling was performed by using peroxidase-labeled secondary antibodies, and color was developed by chemiluminescence method (ECL-Plus, Amersham Pharmacia Biotech) and detected with X-ray films. Quantification was performed with Adobe Photoshop (Adobe Systems Incorporated). […]
(§4) Moreover, the quantification of keratin proteins was performed by western blotting in the same way as in Example 1.

K16 protein [10] = assay: Epidermal K16 protein level by western blotting, wrinkle formation test (Example 2); format: in vivo, hairless mice; conditions: 4% CLP applied with UV irradiation, 12 weeks
Experimental: as §3, §4

K1 protein [11] = assay: Epidermal K1 protein level by western blotting, wrinkle formation test (Example 2); format: in vivo, hairless mice; conditions: 4% CLP applied with UV irradiation, 12 weeks
Experimental: as §3, §4

K10 protein [12] = assay: Epidermal K10 protein level by western blotting, wrinkle formation test (Example 2); format: in vivo, hairless mice; conditions: 4% CLP applied with UV irradiation, 12 weeks
Experimental: as §3, §4

K5 protein [13] = assay: Epidermal K5 protein level by western blotting, wrinkle formation test (Example 2); format: in vivo, hairless mice; conditions: 4% CLP applied with UV irradiation, 12 weeks
Experimental: as §3, §4

K14 protein [14] = assay: Epidermal K14 protein level by western blotting, wrinkle formation test (Example 2); format: in vivo, hairless mice; conditions: 4% CLP applied with UV irradiation, 12 weeks
Experimental: as §3, §4

SMILES: N=C(N)N1CCC[C@H]1C(=O)O [CLP, 1-carbamimidoyl-L-proline]
- visual observation score of wrinkles, 6th week compared with at the start [1]: significantly decreased
- visual observation score of wrinkles, compared with control group on the 6th week ([1]; control 30 vol % ethanol): significantly lower
- epidermal K6 protein level (K6 protein [2]): decreased to unirradiated levels
- epidermal K16 protein level (K16 protein [3]): decreased to unirradiated levels
- epidermal K1 protein level (K1 protein [4]): No significant difference
- epidermal K10 protein level (K10 protein [5]): No significant difference
- epidermal K14 protein level (K14 protein [6]): No significant difference
- epidermal K5 protein level (K5 protein [7]): hardly changed
- wrinkle formation (visual observation score) compared with vehicle control group [8]: significant inhibitory effect
- K6 protein level compared with vehicle control group (K6 protein [9]): significantly decreased
- K16 protein level compared with vehicle control group (K16 protein [10]): significantly decreased
- K1 protein level compared with vehicle control group (K1 protein [11]): no significant difference
- K10 protein level compared with vehicle control group (K10 protein [12]): no significant difference
- K5 protein level compared with vehicle control group (K5 protein [13]): no significant difference
- K14 protein level compared with vehicle control group (K14 protein [14]): no significant difference
